This is an account of results in PubChem BioAssay (NCI).

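Five concentrations, 48 hours, 96-well plates. TGI: concentration producing complete growth inhibition.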 Bounds are passed on as bounds.

Common to all, as to experiment: inhibition of tumour cell growth, NCI panel, 48 h
In test [1] the test system is KM12 colon.
In test [2] the test system is UACC-257 melanoma.
The test system of test [3] is UO-31 renal.
In test [4] the test system is MOLT-4 leukemia.
Test [5] deals with SNB-19 CNS.
The test system of test [6] is MCF7 breast.
The subject of test [7] is T-47D breast.
For test [8], the system named is NCI-H460 lung.
For test [9], the system named is 786-0 renal.
The subject of test [10] is MDA-N.
The subject of test [11] is HCT-15 colon.
Test [12] deals with OVCAR-5 ovarian.

In the case of `CSc1scc2c1/C(=N/NC(N)=O)CCC2`, the TGI in test [1], in test [2], in test [3], in test [4], in test [5] and in [6] was more than 100 µM throughout. Also, the TGI in test [7], in test [8], in test [9], in [10], in [11] and in test [12] was more than 100 µM throughout.
As to `O=C(O)Cn1cc([N+](=O)[O-])c(=O)c2ccccc21`, the TGI in [1], in [2], in test [3], in [4], in test [5] and in [6] was more than 100 µM in each case. The TGI in test [7] was 32.8 µM; in test [8] it was more than 100 µM; in test [9] it was more than 100 µM; in [10], more than 100 µM; in test [11], more than 100 µM; in test [12], more than 100 µM.
For the compound `C=C1C(=O)OC2CC3(C)OC3CC/C(C)=C/C(OC(C)=O)C12` (centres undefined), the TGI in [1] came out at 39.9 µM; in test [2], 22.6 µM; in test [3], 26.5 µM; in [4], 13.9 µM; in [5], 31 µM; in test [6] it was 18 µM. Besides, the TGI was 15.9 µM in test [7]; 31.6 µM in test [8]; 14.2 µM in test [9]; 18.7 µM in test [10]; 19.3 µM in test [11]; 23 µM in test [12].
Consider `[N-]=[N+]=Nc1c([N+](=O)[O-])c(=O)n2c3c(cccc13)CCC2`, for which the TGI was 34.8 µM in [1]; 21.5 µM in test [2]; 28.4 µM in test [3]; 5.58 µM in test [4]; more than 100 µM in test [5]; 27 µM in test [6]. Besides, the TGI came to 26.3 µM in [7]; 35.1 µM in test [8]; 30.9 µM in test [9]; 27.9 µM in test [10]; 17.8 µM in [11]; 30.2 µM in [12].
Regarding `CCC(NC1=NCCO1)c1cccs1` (centres undefined), the TGI in test [1] is 36 µM; in [2], 35.8 µM; in test [3], 32.7 µM; in test [4], more than 100 µM; in [5] it was 29.8 µM; in [6] it was 29 µM. The TGI in [7] turned out to be 37 µM; in [8], 46 µM; in test [9] it was 28.7 µM; in [10] it was 27.7 µM; in [11] it was 30.2 µM; in test [12], 30.7 µM.
Take `CC(=O)c1c2n(n(-c3ccccc3)c1=O)C(=O)c1nccnc1-2`: the TGI in [1], in test [2], in [3], in test [4], in [5] and in test [6] was more than 100 µM in each case. Also, the TGI in test [7], in [8], in test [9], in test [10], in test [11] and in test [12] was more than 100 µM in each case.
For `COc1cc(CS(=O)c2ccc(O)cc2)cc(OC)c1OC` (centres undefined), the TGI in test [1], in [2], in test [3], in [4], in [5] and in [6] was more than 100 µM throughout. Besides, the TGI in test [7], in [8], in [9], in [10], in [11] and in [12] was more than 100 µM throughout.
Consider `CC(C)(C)CC(C)(C)c1ccc(O)c(C[N+](C)(C)[O-])c1`, for which the TGI in test [1], in test [2], in test [3], in [4], in test [5] and in [6] was more than 100 µM throughout. The TGI in [7], in [8], in test [9], in [10], in test [11] and in test [12] was more than 100 µM throughout.
Take `COc1ccc(Nc2nc(N)c(C(=O)c3cccs3)s2)cc1`: the TGI in [1] was 15.9 µM; in [2], 31.3 µM; in [3], more than 41.1 µM; in test [4], 17.2 µM; in test [5] it was more than 64.8 µM; in test [6], 24.9 µM. Also, the TGI in [7] is more than 64.1 µM; in test [8] it was 11.1 µM; in test [9], more than 56.6 µM; in test [10], more than 82.4 µM; in test [11], more than 49.1 µM; in test [12], more than 79.7 µM.
`C=C1CN(C2=NCCO2)C1`: the TGI in test [1], in test [2], in test [3], in test [4], in test [5] and in [6] was more than 100 µM in each case. For the same compound, the TGI in test [7], in test [8], in test [9], in test [10], in [11] and in test [12] was more than 100 µM in each case.
Regarding `CC(=O)/C(=C/N1CCNC1=S)C(=O)Nc1ccccc1C`, the TGI in test [1], in test [2], in test [3], in [4], in test [5] and in test [6] was more than 100 µM in each case. Moreover, the TGI in test [7], in test [8], in test [9], in [10], in [11] and in test [12] was more than 100 µM in each case.
With `Cc1ccc([N+](=O)[O-])c2c(NCC(O)CO)ccnc12` (centres undefined), the TGI in test [1], in test [2], in test [3], in test [4], in test [5] and in [6] was more than 100 µM throughout. Moreover, the TGI in test [7] was more than 100 µM; in test [8], 53.2 µM; in test [9], more than 100 µM; in [10], more than 100 µM; in test [11] it was more than 100 µM; in [12], more than 100 µM.
